Among the data in patent US12694522B2, “Systems and methods of correcting batch effect in biological images” (The University of Hong Kong, priority 2022, dated 2026) are IC50 values, retold here.

For the test, the system named is H2170 cells. As to the kind of experiment: Drug treatment response of lung cancer cell line H2170 (IC50 concentration level of Table 1). The conditions noted are these: Homo sapiens, NCI-H2170; LUSC cell line H2170; concentration level annotated IC50* in Table 1; 24 hours treatment; read-out: IC50 (half-maximal inhibitory concentration of drug). Format: cell-based. The protocol: Morphological profiling is emerging as a promising technique in drug screening; however, the presence of batch effects poses a significant challenge. In this context, the efficacy of the CytoMAD approach is evaluated using label-free drug response assays conducted on LUSC (H2170) cells treated with docetaxel, afatinib, and gemcitabine at various concentrations across two distinct batches. This comprises 18 distinct drug treatment conditions, encompassing five concentration levels and one negative control. During the CytoMAD training process, only batch information and drug types are provided, withholding specific drug concentration data. This allows for the evaluation of the model's self-supervised capability to capture morphological changes across concentrations.
Comparative analysis of phenotypic distributions across different drug treatments (representing different colored violins) showcases preserved patterns before and after the implementation of CytoMAD, confirming its capacity to retain cellular information. To further verify the cellular phenotypic preservation capacity of CytoMAD model, treatment response experiment is conducted with lung cancer cell line H2170. In this experiment, H2170 are treated with drugs of different mechanism of action (MoA) (i.e. Docetaxel as microtubule stabilizing agent, Afatinib as tyrosine kinase inhibitor in targeted therapy and Gemcitabine as antimetabolite), each with 5 concentration levels and a negative control with dimethyl sulfoxide (DMSO) for 24 hours as listed in Table 1. They are imaged using multi-ATOM for single-cell BF and QPI images on 6 days, forming 2 batches with ~100,000 cells per drug. Basically, this dataset consists of 2 batches of data, with each batch containing 3 different drug treatments and each treatment comprising 6 different concentration conditions.

With `CN(C)C/C=C/C(=O)Nc1cc2c(Nc3ccc(F)c(Cl)c3)ncnc2cc1O[C@H]1CCOC1` [Afatinib], the IC50 amounted to 19 nM.

Regarding `CC(=O)O[C@@]12CO[C@@H]1C[C@H](O)[C@@]1(C)C(=O)[C@H](O)C3=C(C)[C@@H](OC(=O)[C@H](O)[C@@H](NC(=O)OC(C)(C)C)c4ccccc4)C[C@@](O)([C@@H](OC(=O)c4ccccc4)[C@H]21)C3(C)C` [Docetaxel], the IC50 amounted to 3.76 nM.

In the case of `Nc1ccn([C@@H]2O[C@H](CO)[C@@H](O)C2(F)F)c(=O)n1` [Gemcitabine], the IC50 was determined as 7.51 nM.
